Measured values from patent US10189774B2 (priority 2006, dated 2019).
Values joined by “and” are separate entries in the source; they are usually repeats but may differ in a detail not shown here. Equal values may be shown once. Read-outs that look alike come from different tables or passages of the source.

Experiments:
[1] = pH 7.4
physchem = settings: water
[2] = test system: human myeloma cell line derived from the ascites of a patient with multiple myeloma; settings: mouse, in vivo
[3] = test system: Human Gastric Cancer HGC-27 cell; assay: cells; type: cell-based; settings: for EC50: Homo sapiens, HGC-27, 72 h, read-out: EC50, HGC-27 cell growth inhibition; for HGC-27 cell growth inhibition rate: 72 hours

Br.CCN(CC)CCOC(=O)CCCc1ccc(N(CCS(C)(=O)=O)CCS(C)(=O)=O)cc1 [diethylaminoethyl 4-[bis(2-methylsulfonylethyl)amino]benzenebutyrate•HBr]
In vitro penetration rate (apparent flux) of HPPs [1]: 0.94 mg/cm^2/h

Br.CCN(CC)CCOC(=O)[C@H](Cc1ccc(N(CCCl)CCCl)cc1)NC(C)=O [4-[bis(2-chloroethyl)amino]-N-acetyl-L-phenylalanine N,N-diethylaminoethyl ester hydrobromide]
solubility (physchem): 300 mg/mL
Life Elongation Rate ([2]; hydrobromide): 287% and 266%
None Disease Rate ([2]; hydrobromide): 4/7 and 3/7
Survival Period ([2]; hydrobromide): 130.5 ± 1.6 days and 121.2 ± 1.8 days
In vitro penetration rate (apparent flux) of HPPs ([1]; human): 1.10 mg/cm^2/h

Br.CCN(CC)CCOC(=O)CCCc1ccc(N(CCCl)CCCl)cc1 [N,N-diethylaminoethyl 4-[bis(2-chloroethyl)amino]benzenebutyrate.HBr]
Life Elongation Rate [2]: 282% and 253%
None Disease Rate [2]: 4/7
Survival Period [2]: 128.5 ± 1.3 days and 115.2 ± 2.1 days
In vitro penetration rate (apparent flux) of HPPs [1]: 1.01 mg/cm^2/h

CC(=O)O[C@H]1C(=O)[C@@]2(C)[C@H]([C@H](OC(=O)c3ccccc3)[C@]3(O)C[C@H](OC(=O)[C@H](O)[C@@H](NC(=O)c4ccccc4)c4ccccc4)C(C)=C1C3(C)C)[C@]1(OC(C)=O)CO[C@@H]1C[C@@H]2O [taxol, Taxol]
EC50 [3]: ~0.013 µM
HGC-27 cell growth inhibition rate ([3]; final concentration 0.5 nM): 10.3%
HGC-27 cell growth inhibition rate ([3]; final concentration 1 nm): 21.6%
HGC-27 cell growth inhibition rate ([3]; final concentration 10 nm): 45.0%
HGC-27 cell growth inhibition rate ([3]; final concentration 25 nm): 76.9%
HGC-27 cell growth inhibition rate ([3]; final concentration 50 nm): 85.2%
HGC-27 cell growth inhibition rate ([3]; final concentration 100 nm): 92.2%
HGC-27 cell growth inhibition rate ([3]; final concentration 500 nm): 94.7%
HGC-27 cell growth inhibition rate ([3]; final concentration 5000 nm): 95.8%

O=C(O)CCCc1ccc(N(CCCl)CCCl)cc1 [chlorambucil]
EC50 [3]: > 100 µM
HGC-27 cell growth inhibition rate ([3]; final concentration 2 μm): 0.3%
HGC-27 cell growth inhibition rate ([3]; final concentration 5 μm): 1.6%
HGC-27 cell growth inhibition rate ([3]; final concentration 25 μm): 25.0%
HGC-27 cell growth inhibition rate ([3]; final concentration 50 μm): 34.9%
HGC-27 cell growth inhibition rate ([3]; final concentration 75 μm): 34.2%
HGC-27 cell growth inhibition rate ([3]; final concentration 100 μm): 39.2%
HGC-27 cell growth inhibition rate ([3]; final concentration 200 μm): 47.7%
HGC-27 cell growth inhibition rate ([3]; final concentration 500 μm): 81.0%
Life Elongation Rate [2]: 127% and 198%
None Disease Rate [2]: 2/7 and 3/7
Survival Period [2]: 57.8 ± 1.5 days and 90.2 ± 1.9 days
In vitro penetration rate (apparent flux) of parent compounds ([1]; human): 0.01 mg/cm^2/h

CS(=O)(=O)CCN(CCS(C)(=O)=O)c1ccc(CCCC(=O)O)cc1 [4-[bis(2-methylsulfonylethyl)amino]benzenebutanoic acid]
In vitro penetration rate (apparent flux) of parent compounds ([1]; human): 0.01 mg/cm^2/h

N[C@@H](Cc1ccc(N(CCCl)CCCl)cc1)C(=O)O [melphalan]
Life Elongation Rate [2]: 195% and 122%
Survival Period [2]: 88.5 ± 1.8 days and 55.7 ± 1.3 days
In vitro penetration rate (apparent flux) of parent compounds ([1]; human): 0.01 mg/cm^2/h

CCN(CC)CCOC(=O)CCCc1ccc(N(CCCl)CCCl)cc1 [N,N-diethylaminoethyl 4-[bis(2-chloroethyl)amino]benzenebutyrate]
EC50 [3]: < 6 µM
HGC-27 cell growth inhibition rate ([3]; final concentration 0.5 μm): 25.5%
HGC-27 cell growth inhibition rate ([3]; final concentration 2 μm): 34.7%
HGC-27 cell growth inhibition rate ([3]; final concentration 5 μm): 46.9%
HGC-27 cell growth inhibition rate ([3]; final concentration 25 μm): 54.6%
HGC-27 cell growth inhibition rate ([3]; final concentration 50 μm): 81.6%
HGC-27 cell growth inhibition rate ([3]; final concentration 75 μm): 93.4%
HGC-27 cell growth inhibition rate ([3]; final concentration 100 μm): 94.7%
HGC-27 cell growth inhibition rate ([3]; final concentration 200 μm): 94.8%
HGC-27 cell growth inhibition rate ([3]; final concentration 500 μm): 94.8%

CCN(CC)CCOC(=O)CCCc1ccc(N(CCS(C)(=O)=O)CCS(C)(=O)=O)cc1.Cl [diethylaminoethyl 4-[bis(2-methylsulfonylethyl)amino]benzenebutyrate.HCl]
Life Elongation Rate [2]: 269% and 244%
None Disease Rate [2]: 4/7 and 3/7
Survival Period [2]: 122.5 ± 1.7 days and 111.2 ± 1.9 days
